Here are results for five molecules from ChEMBL document CHEMBL1149974, “New Oligosaccharidic Crown Ethers as Potential Drug-Targetting Vectors: Synthesis & Biological Evaluation” (1994).

As usually defined, the MIC is the lowest concentration that inhibits growth of the organism.

Converted amounts (≈) assume the structure as drawn.

The subject of this experiment is Saccharomyces cerevisiae. Briefly: Minimum inhibitory concentration required for in vitro inhibition of flocculation against cell wall galactose-specific yeast lectin (KbCWL). It is filed as functional.
Take `O=C[C@H](O)[C@@H](O)[C@@H](O)[C@H](O)CO` [GALACTOSE]: inhibition of growth (MIC) required 3500 µM (≈ 631 µg/mL).
Molecule LACTOSE, ANHYDROUS displayed an MIC of 1250 µM.
Take `CO[C@H]1O[C@@H](C)[C@@H](O[C@@H]2O[C@@H](CO)[C@@H](O[C@@H]3O[C@@H](CO)[C@H](O)[C@H](O)[C@@H]3O)[C@H](O)[C@@H]2O)[C@@H]2OCCOCCOc3ccccc3OCCOCCO[C@H]12`: it took 3000 µM (≈ 2260 µg/mL) to inhibit growth (MIC).
`CO[C@H]1O[C@@H](C)[C@@H](O[C@@H]2O[C@@H](CO)[C@H](O)C(O)[C@@H]2O)C2OCCOCCOc3ccccc3OCCOCCO[C@@H]21` (single isomer, unassigned) displayed an MIC of 2650 µM (≈ 1570 µg/mL).
Turning to `CO[C@@H]1O[C@H](CO)[C@H](O)[C@H](O)[C@H]1O`, it took 1750 µM (≈ 340 µg/mL) to inhibit growth (MIC).
